# Entries after “also recorded” stand apart in the source; their conditions may differ.
# Tests used:
# [1] = target: T1, γ-secretase (Homo sapiens, UniProt P49768); assay: In vitro γ-secretase assay with recombinant C100Flag and CHO S-1 membrane, Aβ and AICD spectra by MALDI-TOF; format: biochemical; conditions: 20 μM
# T1 construct: The membrane derived from the H4 neuroglioma cells overexpressing APP695wt were prepared by carbonate extraction; endogenous in cells; host or cells: H4 neuroglioma cells overexpressing APP695wt (membranes, carbonate extraction)
# Description: Broken cell assays were performed with slight modifications from the previous studies. The membrane derived from the H4 neuroglioma cells overexpressing APP695wt were prepared by carbonate extraction and incubated at 37 °C for 2 h with CA at various concentrations. Aβ levels were quantified by sandwich ELISAs. For Aβ and AICD spectra, the recombinant C100Flag proteins were overexpressed and purified from Escherichia coli BL21 using a HiTrap Q-column (GE Life Science, Little Chalfont, U.K.). The membrane containing γ-secretase was isolated from the CHO S-1 cell line using sodium carbonate (100 mM, pH 11.0). For the in vitro γ-secretase assay, C100Flag recombinant protein at 25 μM was incubated with the membrane (100 μg/mL) in the presence of CA (20 μM) and DMSO in 150 mM sodium citrate buffer (pH 6.8) containing complete protease inhibitor (Roche, Indianapolis, IN) for 2 h at 37 °C.
# Conditioned media from the CHO-2B7 cells and the samples prepared from in vitro γ-secretase studies were used to analyze Aβ and AICD profiles using matrix-assisted laser desorption/ionization time of flight (MALDI-TOF) mass spectrometry analysis. The secreted Aβ peptides were analyzed as previously described with the following modifications. […] Samples were analyzed using a Bruker Microflex LRF-MALDI-TOF mass spectrometer.
# [2] = system: brain mAβ42, mAβ38 and total mAβ; assay: Brain Aβ levels after intraperitoneal injection in wild type mice; format: in vivo, mouse (C57BL/6 or CF-1)
# Description: 25(R)-CA powder was initially dissolved in DMSO (<4.5 % in the final mixture) and then combined with polyethylene glycol (15)-hydroxystearate (Solutol), ethanol, and water at a ratio of (15:10:75). One molar equivalent of sodium hydroxide was added to the mixture. We performed CA intraperitoneal (IP) injections to wild-type mice (C57BL/6 or CF-1). The mice were injected with 25(R)-CA on the right side of the abdomen. The injections have been performed with various time points (30 min, 1 h, 2 h, and 3 h) and with multiple doses (30 mg per kg (mg/kg), 60 mg/kg, 75 mg/kg and 100 mg/kg). The number of each cohort is 6–8. We used 30 mg/kg of CA for the time-course experiments, and for the dose–response experiments the end-point was set at 30 min. The brains and serum are harvested and frozen for brain Aβ extraction.
# The mouse brains were harvested at the age of 3 months. The brains were weighed and recorded. The Diethylamine/Sodium Chloride (DEA/NaCl) extraction buffer (0.4 % DEA) was added to each sample and homogenized using a sonicator. The samples were transferred to a poly-carbonate centrifuge tube and spun down at 50,000xg for 30 min at 4 °C. The supernatant was loaded on the vacuum manifold with the appropriate number of HLB Oasis columns. The samples were loaded on the conditioned column, filtered, and eluted using prepared elution buffer (90 % Methanol, 2 % NH4OH). The eluates are concentrated using the Thermo-Savant SpeedVac concentrator for a minimum of 2 h at 55 °C with radiant heat. The concentrated samples are reconstituted in a blocking buffer (0.67 % Bovine serum albumin (BSA)) at the appropriate volume.
# Monoclonal antibodies to Aβ were generated by the Mayo Clinic Immunology Core facilities (Jacksonville, FL, USA). […] Total Aβ level was determined by capture with Ab5 and detected with horseradish peroxidase (HRP)-conjugated 4G8 (a monoclonal antibody against Aβ17-24; Covance, Waltham, MA, USA) with the other Aβ peptides detected with HRP-conjugated Ab5. […] Following these steps, the Aβ is monomeric, as determined by size-exclusion chromatography.
# [3] = parameters: method as in PMID 10428977; conditions: in humans; cited from earlier work
structure (smiles),measurement,setting,value
"CC(CCC[C@@H](C)C(=O)O)[C@H]1CCC2C3CC=C4C[C@@H](O)CC[C@]4(C)C3CC[C@@]21C (stereo partly drawn) [Cmpd 2a, 25(R)-cholestenoic acid]",ε-site utilizations (AICD49-99 and AICD50-99),[1]; vs DMSO control,did not affect
same,Aβ spectra (MALDI-TOF),[1]; vs DMSO treated control,decrease Aβ42 peak and increase Aβ38 peak
same,brain Aβ levels,"[2]; 30 mg/kg IP, brains harvested after 30 min, 1, 2 and 3 h",no changes
same,"brain mAβ42, mAβ38 and total mAβ","[2]; 30, 60, 75, 100 mg/kg IP, vs vehicle-injected control, listed as CA",No significant effects; also recorded: did not show acute effects; also recorded: did not affect
same,half-life (T1/2),[3],1.5 h

# From article PMC4501119, “Cholestenoic acid, an endogenous cholesterol metabolite, is a potent γ-secretase modulator” (Molecular Neurodegeneration, 2015)
